From patent US12180192B2, “Modulators of THR-β and methods of use thereof” (ALIGOS THERAPEUTICS, INC., priority 2019, dated 2024) come the findings set out here.

Each structure is given as a SMILES string.

The target of experiment [1] is T1, human thyroid receptor beta ligand-binding domain (LBD) (Homo sapiens, UniProt P10828).
T1 construct: purchased Invitrogen
T1 sequence (P10828 217-461 limits assumed): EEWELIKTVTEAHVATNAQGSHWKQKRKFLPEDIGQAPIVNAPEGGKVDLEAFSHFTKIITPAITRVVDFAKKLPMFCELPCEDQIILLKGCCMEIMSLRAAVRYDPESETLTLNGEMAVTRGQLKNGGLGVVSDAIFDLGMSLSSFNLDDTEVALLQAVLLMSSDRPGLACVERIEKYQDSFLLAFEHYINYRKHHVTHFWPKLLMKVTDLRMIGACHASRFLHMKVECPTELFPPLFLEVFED
The experiment in a line: TR-FRET thyroid receptor beta coactivator assay (THR biochemical assay, Assay 1). To be noted: for EC50: THR-beta, TR-FRET coactivator assay, read-out: Activity category Assay 1 (EC50, THR-beta agonist); for Emax: Table 5, Assay 1, THRβ, read-out: Activity category Assay 1 THRβ (Emax). A digest of the protocol: (§1)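 GST-tagged human TRβ or TRα LBD, 1 nM final (stated for β), with fluorescein-SRC2-2 coactivator peptide (200 nM) and Tb-anti-GST antibody (2 nM). Agonists serially diluted, 1% DMSO final. 1 h incubation at rt in the dark; TR-FRET read as rise in fluorescein and drop in terbium emission.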
On the technique in general: In TR-FRET formats the signal depends on donor and acceptor labels being close together.

The target of a further experiment is T2, THR beta (Homo sapiens, UniProt P10828).
T2 construct: expressed in transfected cells; host or cells: HEK293T (ATCC CRL-3216)
T2 sequence (P10828 1-461): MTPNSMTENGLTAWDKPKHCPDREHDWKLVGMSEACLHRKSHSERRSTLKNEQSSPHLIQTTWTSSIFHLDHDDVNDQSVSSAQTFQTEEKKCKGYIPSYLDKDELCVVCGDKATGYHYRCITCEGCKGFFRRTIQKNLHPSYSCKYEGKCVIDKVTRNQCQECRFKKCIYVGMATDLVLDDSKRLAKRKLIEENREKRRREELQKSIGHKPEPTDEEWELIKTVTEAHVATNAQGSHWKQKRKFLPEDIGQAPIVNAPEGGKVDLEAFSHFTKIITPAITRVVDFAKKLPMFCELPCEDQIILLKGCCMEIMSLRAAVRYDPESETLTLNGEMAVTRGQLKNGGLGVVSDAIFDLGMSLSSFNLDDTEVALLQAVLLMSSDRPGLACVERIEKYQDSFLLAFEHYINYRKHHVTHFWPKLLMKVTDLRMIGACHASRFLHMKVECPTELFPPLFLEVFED
T2 sequence (P19793 1-462 partner): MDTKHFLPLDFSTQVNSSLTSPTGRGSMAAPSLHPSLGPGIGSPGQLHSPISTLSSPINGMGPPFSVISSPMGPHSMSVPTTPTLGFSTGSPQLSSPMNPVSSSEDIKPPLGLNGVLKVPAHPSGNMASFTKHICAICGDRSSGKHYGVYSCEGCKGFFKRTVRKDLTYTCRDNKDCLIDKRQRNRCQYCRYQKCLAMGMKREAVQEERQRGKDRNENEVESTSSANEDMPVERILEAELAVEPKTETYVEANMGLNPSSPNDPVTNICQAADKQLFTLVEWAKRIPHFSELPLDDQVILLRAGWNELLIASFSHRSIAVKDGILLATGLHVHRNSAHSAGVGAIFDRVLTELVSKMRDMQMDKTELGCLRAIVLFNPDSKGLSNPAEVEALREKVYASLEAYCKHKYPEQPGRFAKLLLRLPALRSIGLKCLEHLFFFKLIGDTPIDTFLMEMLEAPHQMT
The experiment in a line: HEK293T THR beta/RXR luciferase reporter assay (Assay 2). It counts as cell-based. The note with it: for Emax: HEK-293T, Table 5, Assay 2, THRβ, read-out: Activity category Assay 2 THRβ (Emax); for EC50: THR-beta, HEK293T reporter assay, read-out: Activity category Assay 2 (EC50, THR-beta agonist). The procedure, abridged: (§2)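 HEK293T cells transiently transfected with TRE-luciferase reporter, RXR, and THR alpha or THR beta plasmid; ten five-fold compound dilutions from DMSO added for 18-24 h. One-Glo luminescence read; percent agonism normalized between negative and positive controls.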

For another experiment, the target named is T3, THR alpha (Homo sapiens, UniProt P10827).
T3 construct: expressed in transfected cells; host or cells: HEK293T (ATCC CRL-3216)
T3 sequence (P10827 1-410 isoform P10827-2): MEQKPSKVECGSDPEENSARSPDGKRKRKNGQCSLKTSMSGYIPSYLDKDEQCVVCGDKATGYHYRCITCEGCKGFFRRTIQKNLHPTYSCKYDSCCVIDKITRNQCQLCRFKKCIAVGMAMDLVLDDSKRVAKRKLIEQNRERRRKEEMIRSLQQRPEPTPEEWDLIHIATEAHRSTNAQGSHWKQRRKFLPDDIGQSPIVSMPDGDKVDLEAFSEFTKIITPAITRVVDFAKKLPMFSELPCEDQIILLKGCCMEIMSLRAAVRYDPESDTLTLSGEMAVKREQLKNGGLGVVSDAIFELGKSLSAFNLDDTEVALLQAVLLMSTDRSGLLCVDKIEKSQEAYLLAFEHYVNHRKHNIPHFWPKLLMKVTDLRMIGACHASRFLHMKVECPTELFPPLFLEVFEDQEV
T3 sequence (P19793 1-462 partner): T2 sequence (P19793 1-462 partner)
In words: HEK293T THR alpha/RXR luciferase reporter assay (Assay 2). The experiment is classed as cell-based. To be noted: Assay 2; for Emax: HEK-293T, Table 5, THRα, read-out: Activity category Assay 2 THRα (Emax); for EC50: Table 4, THR-alpha, read-out: Activity category Assay 2 (EC50, THR-alpha agonist activity). A digest of the protocol: as §2

The target in experiment [2] is T4, human thyroid receptor alpha ligand-binding domain (LBD) (Homo sapiens, UniProt P10827).
T4 construct: purchased Invitrogen
In words: TR-FRET thyroid receptor alpha coactivator assay (THR biochemical assay, Assay 1). To be noted: for EC50: Table 4, THR-alpha, read-out: Activity category Assay 1 (EC50, THR-alpha agonist activity); for Emax: Table 5, THRα, read-out: Activity category Assay 1 THRα (Emax). A digest of the protocol: as §1

Regarding `Cc1cc(-n2nc(N)c(=O)[nH]c2=O)cc(C)c1Cc1ccc2c(c1)C1(CC1)C(=O)N2` [Compound 151, 6-Amino-2-(3,5-dimethyl-4-((2′-oxospiro[cyclopropane-1,3′-indolin]-5′-yl)methyl)phenyl)-1,2,4-triazine-3,5(2H,4H)-dione], the EC50 (in experiment [1]; at THR beta; at THR alpha; in experiment [2]) was under 50 nM in each case. The maximum response (Emax) in experiment [1] is 50 to 75%; on THR beta, 50 to 75%; at THR alpha it was 50 to 75%; in experiment [2], over 75%.
With `Cc1cc(-n2nc(N)c(=O)[nH]c2=O)cc(C)c1Cc1cc2c(C(C)C)c[nH]c2cn1` [Compound 157, 6-amino-2-[4-[(3-isopropyl-1H-pyrrolo[2,3-c]pyridin-5-yl)methyl]-3,5-dimethyl-phenyl]-1,2,4-triazine-3,5-dione], the concentration giving a half-maximal response (EC50) was under 50 nM in experiment [1], under 50 nM at THR beta, 50 to 250 nM on THR alpha and 250 to 1000 nM in experiment [2]. The maximal response (Emax) in experiment [1] is over 75%; on THR beta, over 75%; on THR alpha it was 50 to 75%; in experiment [2], 50 to 75%.
`Nc1nn(-c2cc(Cl)c(Oc3cc(C4Cc5ccccc54)c(=O)[nH]n3)c(Cl)c2)c(=O)[nH]c1=O` (stereo not drawn) [Compound 158]: the concentration giving a half-maximal response (EC50) in experiment [1] was under 50 nM; on THR beta it was 50 to 250 nM; at THR alpha it was 1000 to 10000 nM; in experiment [2] it was 250 to 1000 nM. Besides, the Emax in experiment [1] is under 50%; at THR beta it was 50 to 75%; on THR alpha, under 50%; in experiment [2], under 50%.

For orientation: EC50 means the concentration giving half of the maximal effect. One may read the Emax as the greatest response seen or fitted, relative to the assay's reference.
